From patent publication US12077501B2, “Compounds and compositions for intracellular delivery of agents” (ModernaTX, Inc., priority 2017, dated 2024)

Assays:
hEPO expression [1] = assay: hEPO (miR126 + miR142) mRNA expression, Tables 8b-8e; format: in vivo; settings: for AUC: Table 8b; for AUC (mIU/mL*h): lipid:Chol:PEG 1 50:47.5:2.5, Table 8e
[2] = Lipid clearance: % dose remaining, Tables 7c and 8b-8e (species not given); format: in vivo
Excerpt: In contrast, hEPO expression in rats induced by administration of a nanoparticle composition including a compound according to one of formulae (I), (Ia1)-(Ia6), (Ib), (II), (IIa), (III), and (IIIa) was substantially […] than that measured for MC3. […] Tables 7c and 7d show additional protein expressions and clearance data from compositions with various compounds disclosed herein as compared to with MC3. Tables 7e, 7f and 7g show hEPO expression data in CD-1 mice at a dose of 0.5 mpk.

[3] = Particle size and polydispersity index of nanoparticle compositions (Zetasizer Nano ZS); format: physicochemical
Description: A Zetasizer Nano ZS (Malvem Instruments Ltd, Malvem, Worcestershire, UK) can be used to determine the particle size, the polydispersity index (PDI) and the zeta potential of the nanoparticle compositions in 1×PBS in determining particle size and 15 mM PBS in determining zeta potential.

[4] = Encapsulation efficiency of RNA (QUANT-IT RIBOGREEN RNA assay); format: physicochemical
How it was run: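 Samples diluted to about 5 μg/mL RNA in TE buffer pH 7.5, treated with buffer or 2% Triton X-100 for 15 min at 37° C, then stained with RiboGreen (1:100). Fluorescence at about 480/520 nm, blank-subtracted; free RNA fraction is intact over Triton-disrupted signal.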

hEPO expression [5] = assay: hEPO expression in CD-1 mice compared with MC3; format: in vivo; settings: intravenous, 0.5 mpk, Table 7e
How it was run: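 Read-out was hEPO expression in CD-1 mice after a 0.5 mpk dose of nanoparticle composition including the test compound. An MC3 composition served as reference.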

[6] = pKa of nanoparticle compositions; format: physicochemical; settings: Table 1c
[7] = Lipid purity change after storage in EtOH for 96 h at 25 or 37 °C; format: physicochemical
How it was run: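 Lipid stability was assessed as purity after storage in ethanol for 96 h at 25 °C or 37 °C.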

[8] = Lipid clearance: % dose remaining in liver of CD-1 mice; format: in vivo; settings: intravenous, 0.5 mg/kg, CD-1 mouse, Table 8a
How it was run: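 Nanoparticle compositions containing the test compound were dosed to CD-1 mice at 0.5 mpk, and hEPO expression was measured. Clearance data were collected from the same compositions.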

[9] = Table 1d, Formulated with lipid:Chol:DOPE:PEG 1 40:38.5:20:1.5
[10] = Table 1c, nanoparticle compositions
[11] = lipid:Chol:PEG 1 50:47.5:2.5, Table 8e

| SMILES | AUC (hEPO expression [1]) [pg·h/mL] | % Dose Remaining (liver, 24 h) ([2]; Table 8b) [%] | PDI [3, 9] | Size (nm) [3, 9] [nm] | EE (%) [4, 9] [%] | AUC (mIU/mL*h) (hEPO expression [1]) | % Dose Remaining (liver, 24 h) [2, 11] [%] | other results |
| --- | --- | --- | --- | --- | --- | --- | --- | --- |
| CCCC/C=C\CCCCCCCCN(CCCOC(=O)CCCCCCCCC)CC(=O)N1CCN(C(=O)CN(CCCCCCCCC)CCN(CCCCCCCCC)CCCCCCCCC)CC1 [Compound 140, (Z)-3-((2-(4-(N-(2-(Dinonylamino)ethyl)-N-nonylglycyl)piperazin-1-yl)-2-oxoethyl)(tetradec-9-en-1-yl)amino)propyl Decanoate] | 4.55e+07 | 1.66 | 0.14 | 131.1 | 86.9 |  |  |  |
| CCCCCCCCCCCCCCN(C/C=C\COC(=O)CCCCCCCC)CC(=O)N1CCN(C(=O)CN(CCCCCCCCC)CCN(CCCCCCCCC)CCCCCCCCC)CC1 [Compound 141, (Z)-4-((2-(4-(N-(2-(dinonylamino)ethyl)-N-nonylglycyl)piperazin-1-yl)-2-oxoethyl)(tetradecyl)amino)but-2-en-1-yl nonanoate] | 2.7e+07 | 1.41 | 0.15 | 131.5 | 97.6 |  |  |  |
| CCCCCCCCCCN(CCCCCCCCCC)CCCC(=O)N1CCN(C(=O)CCCN(CCCCCCCCCC)CCCCCCCCCC)CC1 [Compound 146, 1,1′-(Piperazine-1,4-diyl)bis(4-(didecylamino)butan-1-one)] | 1.27e+07 | 81.04 |  |  |  |  |  |  |
| CCCCCCCCCN(CCCCCCCCC)CCN(CCCCCCCCC)CC(=O)N(C)CCN(C)C(=O)CN(CCCCCCCCC)CCCCCCCCC [Compound 151, 2-(Dinonylamino)-N-(2-(2-((2-(dinonylamino)ethyl)(nonyl)amino)-N-methylacetamido)ethyl)-N-methylacetamide] |  |  |  |  |  |  |  | AUC (p/s*h) CD-1 mice 0.5 mpk (hEPO expression [5]): 1.54E+08 p/s*h; PDI [3, 10]: 0.18; Size (nm) [3, 10]: 77.4 nm; pKa [6]: 7.46; Lipid % change purity in EtOH, 25° C., 96 h [7]: −0.7%; Lipid % change purity in EtOH, 37° C., 96 h [7]: 2.1%; EE (%) [4, 10]: 98.8%; % Dose Remaining 24 hr [8]: 75.96% |
| CCCCCCCCCN(CCCCCCCCC)CCN(CCCCCCCCC)CC(=O)N(C)CCN(C)C(=O)CN(CCCCCCCCC)CCCC(=O)OCCCCC [Compound 152, Pentyl 8,11-dimethyl-5,14,17-trinonyl-7,12-dioxo-5,8,11,14,17-pentaazahexacosanoate] |  |  |  |  |  |  |  | AUC (p/s*h) CD-1 mice 0.5 mpk (hEPO expression [5]): 1.09E+08 p/s*h; PDI [3, 10]: 0.16; Size (nm) [3, 10]: 79.1 nm; pKa [6]: 7.48; Lipid % change purity in EtOH, 25° C., 96 h [7]: 0%; Lipid % change purity in EtOH, 37° C., 96 h [7]: 2%; EE (%) [4, 10]: 98.5%; % Dose Remaining 24 hr [8]: 34.01% |
| CCCCCCCCCN(CCCCCCCCC)CCN(CCCCCCCCC)CC(=O)NCCNC(=O)CN(CCCCCCCCC)CCCCCCCCC [Compound 153, 2-(dinonylamino)-N-(2-(2-((2-(dinonylamino)ethyl)(nonyl)amino)acetamido)ethyl)acetamide] | 5.62e+07 | 84.71 | 0.23 | 116.7 | 97.2 |  |  |  |
| CCCCC/C=C\CCN(CC/C=C\CCCCC)CCN(CC/C=C\CCCCC)CC(=O)N(C)CCN(C)C(=O)CN(CCCCCCCCC)CCCCCCCCC [Compound 154, 2-((2-(di((Z)-non-3-en-1-yl)amino)ethyl)((Z)-non-3-en-1-yl)amino)-N-(2-(2-(dinonylamino)-N-methylacetamido)ethyl)-N-methylacetamide] | 1.37e+08 | 78.44 | 0.18 | 103.3 | 97.8 |  |  |  |
| CCCCCCCCCN(CCCCCCCCC)CCN(CCCCCCCCC)CC(=O)N(C)CCCN(C)C(=O)CN(CCCCCCCCC)CCCCCCCCC [Compound 155, 2-(dinonylamino)-N-(3-(2-((2-(dinonylamino)ethyl)(nonyl)amino)-N-methylacetamido)propyl)-N-methylacetamide] | 8.89e+07 | 78.61 | 0.22 | 84.4 | 98.4 |  |  |  |
| CCCCCCCCCN(CCCCCCCCC)CCN(CCCCCCCCC)CC(=O)N(CC)CCN(CC)C(=O)CN(CCCCCCCCC)CCCCCCCCC [Compound 157, 2-(dinonylamino)-N-(2-(2-((2-(dinonylamino)ethyl)(nonyl)amino)-N-ethylacetamido)ethyl)-N-ethylacetamide] | 2.08e+08 | 42.48 | 0.11 | 89.8 | 98.3 |  |  |  |
| CCCCCCCCCCCCCCN(CCCOC(=O)CCCCCCCCC)CC(=O)N(C)CCN(C)C(=O)CN(CCCCCCCCC)CCN(CCCCCCCCC)CCCCCCCCC [Compound 158, 7,10-dimethyl-13,16-dinonyl-6,11-dioxo-4-tetradecyl-4,7,10,13,16-pentaazapentacosyl Decanoate] | 1.03e+07 | 0.30 | 0.20 | 124.2 | 97.8 |  |  |  |
| CCCCCCCCCN(CCCCCCCCC)CCCCCCCCN(CCCCCCCCC)CCN(CCCCCCCCC)CCCCCCCCC [Compound 160, N^1-(2-(dinonylamino)ethyl)-N^1,N^8,N^8-trinonyloctane-1,8-diamine] | 219000 | 60.54 | 0.25 | 115.5 | 97.3 |  |  |  |
| CCCCCCCCCOC(=O)CCCCCCCN(CCCCCCCC(=O)OCCCCCCCCC)CCOCCOCCN(CCCCCCCCC)CCCCCCCCC [Compound 173, Nonyl 18-nonyl-9-(8-(nonyloxy)-8-oxooctyl)-12,15-dioxa-9,18-diazaheptacosanoate] |  |  |  |  |  | 6.70E+06 | 8.55 |  |
| CCCCCCCCCOC(=O)CCCCCCCN(CCCCCCCC(=O)OC(CCCCCCCC)CCCCCCCC)CCOCCOCCN(CCCCCCCCC)CCCCCCCCC [Compound 174, Heptadecan-9-yl 18-nonyl-9-(8-(nonyloxy)-8-oxooctyl)-12,15-dioxa-9,18-diazaheptacosanoate] |  |  |  |  |  | 5.03E+07 | 30.05 |  |
| CCCCCCCCCOC(=O)CCCCCCCN(CCCCCCCC(=O)OCCCCCCCCC)CCCCCN(CCCCCCCCC)CCCCCCCCC [Compound 177, Dinonyl 8,8′-((5-(dinonylamino)pentyl)azanediyl)dioctanoate] |  |  |  |  |  | 6.84E+07 | 35.91 |  |
| CCCCCCCCCOC(=O)CCCCCCCN(CCCCCCCC(=O)OC(CCCCCCCC)CCCCCCCC)CCCCCN(CCCCCCCCC)CCCCCCCCC [Compound 178, Heptadecan-9-yl 8-((5-(dinonylamino)pentyl)(8-(nonyloxy)-8-oxooctyl)amino)octanoate] |  |  |  |  |  | 8.44E+07 | 44.93 |  |
| CCCCCCCCCOC(=O)CCCCCCCN(CCCCCCCC(=O)OCCCCCCCCC)CCOCCN(CCCCCCCCC)CCCCCCCCC [Compound 179, Dinonyl 8,8′-((2-(2-(dinonylamino)ethoxy)ethyl)azanediyl)dioctanoate] |  |  |  |  |  | 7.79E+06 | 26.22 |  |
| CCCCCCCCCOC(=O)CCCCCCCN(CCCCCCCC(=O)OC(CCCCCCCC)CCCCCCCC)CCOCCN(CCCCCCCCC)CCCCCCCCC [Compound 180, Heptadecan-9-yl 8-((2-(2-(dinonylamino)ethoxy)ethyl)(8-(nonyloxy)-8-oxooctyl)amino)octanoate] |  |  |  |  |  | 6.53E+07 | 50.47 |  |
